The source of these data is US8648066B2 (Exelixis, Inc., priority 2009, dated 2014).

Each structure is given as a SMILES string. A value given as a limit tells only on which side of the number the result lay.

This experiment concerns the target mTOR/GbL/Raptor (mTORC1) (Homo sapiens, UniProt P42345). Description: mTOR/GbL/Raptor (mTORC1) ELISA assay. Conditions: phosphorylation of 4E-BP1; 0.2 nM mTORC1, 10 μM ATP; read-out: IC50 in this assay (mTORC1 ELISA). The format is biochemical. Put shortly:
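ELISA read-out: phospho-4E-BP1 captured on Ni-chelate plates and detected with anti-phospho antibody plus HRP-anti-IgG luminescence. The kinase step ran 120 min at ambient temperature with 0.2 nM human mTORC1, 10 µM ATP, 50 nM His-4E-BP1, 10 mM MnCl2, pH 7.2 HEPES.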
(In general: An ELISA detects its analyte on a solid surface through an enzyme-linked reagent.)

For the compound `CCNc1nc(N2CCOc3ccc(-c4ccc5nc(NCC)[nH]c5c4)cc3C2)c2ccccc2n1` [Example 270, N-ethyl-4-{7-[2-(ethylamino)-1H-benzimidazol-6-yl]-2,3-dihydro-1,4-benzoxazepin-4(5H)-yl}quinazolin-2-amine], the IC50 – broadly, the concentration needed to halve the response being measured – lay within 250 to 1000 nM.

Regarding `CC1(C)CCc2ncnc(N3CCOc4ccc(-c5ccc6[nH]c(C(F)F)nc6c5)cc4C3)c2C1` [Example 265], the half-maximal inhibitory concentration (IC50) is not above 10 nM.

Consider `COc1ccc2c(N3CCOc4ccc(-c5cccc(C(=O)O)c5)cc4C3)nc(C)nc2c1` [Example 456, 3-{4-[2-methyl-7-(methyloxy)quinazolin-4-yl]-2,3,4,5-tetrahydro-1,4-benzoxazepin-7-yl}benzoic acid], for which the IC50 is not below 2000 nM.

On to `CC1(C)CCc2ncnc(N3CCOc4ccc(-c5cnc(N)nc5)cc4C3)c2C1` [Example 523, 5-[4-(6,6-dimethyl-5,6,7,8-tetrahydroquinazolin-4-yl)-2,3,4,5-tetrahydro-1,4-benzoxazepin-7-yl]pyrimidin-2-amine], for which the 50% inhibitory concentration (IC50) was 50 to 250 nM.

With `CCS(=O)(=O)c1cc(-c2ccc3c(c2)CN(c2ncnc4c2CC(C)(C)CC4)CCO3)cnc1N` [Example 510, 5-[4-(6,6-dimethyl-5,6,7,8-tetrahydroquinazolin-4-yl)-2,3,4,5-tetrahydro-1,4-benzoxazepin-7-yl]-3-(ethylsulfonyl)pyridin-2-amine], the IC50 lay in the range of 10 to 50 nM.

Regarding `Cc1nc2ccc(-c3ccc4c(c3)CN(c3ncnc(C)c3Cc3cc(F)cc(F)c3)CCO4)cc2[nH]1` [Example 91, 4-(5-[(3,5-difluorophenyl)methyl]-6-methylpyrimidin-4-yl}-7-(2-methyl-1H-benzimidazol-6-yl)-2,3,4,5-tetrahydro-1,4-benzoxazepine], the half-inhibitory concentration (IC50) fell in the range of 10 to 50 nM.

As to `COc1c(O)ccc2c(N3CCOc4ccc(-c5ccc6nc(C)[nH]c6c5)cc4C3)ncnc12` [Example 164, 4-[7-(2-methyl-1H-benzimidazol-6-yl)-2,3-dihydro-1,4-benzoxazepin-4-(5H)-yl]-8-(methyloxy)quinazolin-7-ol], the concentration for half-maximal inhibition (IC50) was 250 to 1000 nM.

Consider `Cc1nc2ncc(-c3ccc4c(c3)CN(c3ncncc3C)CCO4)cc2[nH]1` [Example 169, 7-(2-methyl-1H-imidazo[4,5-b]pyridin-6-yl)-4-(5-methylpyrimidin-4-yl)-2,3,4,5-tetrahydro-1,4-benzoxazepine], for which the half-maximal inhibitory concentration (IC50) lay within 250 to 1000 nM.

As to `CC1=Cc2ncnc(N3CCOc4ccc(-c5cnc(N)c(S(=O)(=O)NCC6CCN(C)CC6)c5)cc4C3)c2CC1(C)C` [Example 420, 2-amino-N-[(1-methylpiperidin-4-yl)methyl]-5-[4-(6,6,7-trimethyl-5,6-dihydroquinazolin-4-yl)-2,3,4,5-tetrahydro-1,4-benzoaxepin-7-yl]pyridine-3-sulfonamide], the IC50 is 250 to 1000 nM.

As to `Cc1nc2ccc(-c3ccc4c(c3)CN(c3ncnc(C(C)C)c3C)CCO4)cc2[nH]1` [Example 62, 7-(2-methyl-1H-benzimidazol-6-yl)-4-[5-methyl-6-(1-methylethyl)pyrimidin-4-yl]-2,3,4,5-tetrahydro-1,4-benzoxazepine], the IC50 was in the range of 250 to 1000 nM.

`CC1(C)CCc2ncnc(N3CCOc4ccc(-c5cnc(N)c(S(=O)(=O)N[C@H]6CCNC6)c5)cc4C3)c2C1` [Example 390]: the concentration for half-maximal inhibition (IC50) lay within 10 to 50 nM.

As for `CC1(C)CCc2ncnc(N3CCOc4ccc(-c5cnc(N)c(S(=O)(=O)NCC(N)=O)c5)cc4C3)c2C1` [Example 636, N~2~-({2-amino-5-[4-(6,6-dimethyl-5,6,7,8-tetrahydroquinazolin-4-yl)-2,3,4,5-tetrahydro-1,4-benzoxazepin-7-yl]pyridin-3-yl}sulfonyl)glycinamide], the half-inhibitory concentration (IC50) was in the range of 10 to 50 nM.

As for `Cc1nc2cc(-c3ccc4c(c3)CN(c3nc(NCCN(C)C)nc(C)c3Cc3ccc(F)cc3)CCO4)ccc2[nH]1` [Example 683, N′-{5-[(4-fluorophenyl)methyl]-4-methyl-6-[7-(2-methyl-1H-benzimidazol-5-yl)-2,3-dihydro-1,4-benzoxazepin-4(5H)-yl]pyrimidin-2-yl}-N,N-dimethylethane-1,2-diamine], the half-inhibitory concentration (IC50) is 10 to 50 nM.

`Cc1nc(CN(C)C)nc(N2CCOc3ccc(-c4cnc5sc(N)nc5c4)cc3C2)c1Br` [Example 673, 6-(4-{5-bromo-2-[(dimethylamino)methyl]-6-methylpyrimidin-4-yl}-2,3,4,5-tetrahydro-1,4-benzoxazepin-7-yl)[1,3]thiazolo[5,4-b]pyridin-2-amine]: the concentration for half-maximal inhibition (IC50) was 250 to 1000 nM.

For `COc1ccc2c(N3CCOc4ccc(-c5cnc(NC(C)=O)s5)cc4C3)nc(C)nc2c1` [Example 293, N-(5-{4-[2-methyl-7-(methyloxy)quinazolin-4-yl]-2,3,4,5-tetrahydro-1,4-benzoxazepin-7-yl}-1,3-thiazol-2-yl)acetamide], the IC50 was not below 2000 nM.

In the case of `Cc1nc(CN(C)C)nc(N2CCOc3ccc(-c4cnc5sc(N)nc5c4)cc3C2)c1Cl` [Example 678, 6-(4-{5-chloro-2-[(dimethylamino)methyl]-6-methylpyrimidin-4-yl}-2,3,4,5-tetrahydro-1,4-benzoxazepin-7-yl)[1,3]thiazolo[5,4-b]pyridin-2-amine], the IC50 lay in the range of 250 to 1000 nM.

For `Cc1c(N2CCOc3ccc(-c4cnc5nc(C6CC6)[nH]c5c4)cc3C2)ncnc1N(C)[C@@H](C)c1ccccc1` [Example 536, 6-[7-(2-cyclopropyl-1H-imidazo[4,5-b]pyridin-6-yl)-2,3-dihydro-1,4-benzoxazepin-4(5H)-yl]-N,5-dimethyl-N-[(1S)-1-phenylethyl]pyrimidin-4-amine], the IC50 was in the range of 50 to 250 nM.

`COc1ccc2c(N3CCOc4ccc(-c5ccc(-c6nc7ccccc7[nH]6)cc5)cc4C3)nc(C)nc2c1` [Example 240, 7-[4-(1H-benzimidazol-2-yl)phenyl]-4-[2-methyl-7-(methyloxy)quinoazlin-4-yl]-2,3,4,5-tetrahydro-1,4-benzoxazepine]: the IC50 was not below 2000 nM.

Turning to `CC1(C)CCc2ncnc(N3CCOc4ccc(-c5cnc6sc(N)nc6c5)cc4C3)c2C1` [Example 248, 6-[4-(6,6-dimethyl-5,6,7,8-tetrahydroquinazolin-4-yl)-2,3,4,5-tetrahydro-1,4-benzoxazepin-7-yl][1,3]thiazolo[5,4-b]pyridin-2-amine], the IC50 was not above 10 nM.

`CCN(CC)Cc1nc(C)c(C(C)C)c(N2CCOc3ccc(-c4ccc5nc(C)[nH]c5c4)cc3C2)n1` [Example 685, N-ethyl-N-({4-methyl-6-[7-(2-methyl-1H-benzimidazol-5-yl)-2,3-dihydro-1,4-benzoxazepin-4(5H)-yl]-5-(1-methylethyl)pyrimidin-2-yl}methyl)ethanamine]: the half-inhibitory concentration (IC50) fell in the range of 50 to 250 nM.

With `c1ccc2c(N3CCOc4ccc(-c5ccc6nc(C7CCCCC7)[nH]c6c5)cc4C3)ccnc2c1` [Example 200, 7-(2-cyclohexyl-1H-benzimidazol-6-yl)-4-quinolin-4-yl-2,3,4,5-tetrahydro-1,4-benzoxazepine], the concentration for half-maximal inhibition (IC50) was 1000 to 2000 nM.

Consider `CC1(C)CCc2ncnc(N3CCOc4ccc(-c5cnc(N)c(S(=O)(=O)NC[C@H]6CCCNC6)c5)cc4C3)c2C1` [Example 389, 2-amino-5-[4-(6,6-dimethyl-5,6,7,8-tetrahydroquinazolin-4-yl)-2,3,4,5-tetrahydro-1,4-benzoxazepin-7-yl]-N-[(3S)-piperidin-3-ylmethyl]pyridine-3-sulfonamide], for which the IC50 was 10 to 50 nM.

Consider `COc1ccc(-c2ccc3c(c2)CN(c2nc(CN(C)C)nc(C)c2C(C)C)CCO3)cc1NS(C)(=O)=O` [Example 656, N-[5-(4-{2-[(dimethylamino)methyl]-6-methyl-5-(1-methylethyl)pyrimidin-4-yl}-2,3,4,5-tetrahydro-1,4-benzoxazepin-7-yl)-2-(methyloxy)phenyl]methane-sulfonamide], for which the IC50 is 250 to 1000 nM.

As for `CCNc1nc2ccc(-c3ccc4c(c3)CN(c3ccnc5cc(OC)c(OC)cc35)CCO4)cc2[nH]1` [Example 261, 6-{4-[6,7-bis(methyloxy)quinolin-4-yl]-2,3,4,5-tetrahydro-1,4-benzoxazepin-7-yl}-N-ethyl-1H-benzimidazol-2-amine], the 50% inhibitory concentration (IC50) was 250 to 1000 nM.

On to `Cc1nc2ccc(-c3ccc4c(c3)CN(c3ncnc5ccc(S(C)(=O)=O)cc35)CCO4)cc2[nH]1` [Example 50, 7-(2-methyl-1H-benzimidazol-6-yl)-4-[6-(methylsulfonyl)quinazolin-4-yl]-2,3,4,5-tetrahydro-1,4-benzoxazepine], for which the IC50 was in the range of 250 to 1000 nM.

For the compound `CC[C@H]1CCCc2c(ncnc2N2CCOc3ccc(-c4cnc5nc(C)[nH]c5c4)cc3C2)C1` [Example 490], the concentration for half-maximal inhibition (IC50) was not above 10 nM.

With `Cc1nc2ccc(-c3ccc4c(c3)CN(c3ncnc5c3CCN(Cc3ccccc3)C5)CCO4)cc2[nH]1` [Example 60, 7-(2-methyl-1H-benzimidazol-6-yl)-4-[7-(phenylmethyl)-5,6,7,8-tetrahydropyrido[3,4-d]pyrimidin-4-yl]-2,3,4,5-tetrahydro-1,4-benzoxazepine], the IC50 was in the range of 50 to 250 nM.

`CN(C)c1nc2ccc(-c3ccc4c(c3)CN(c3ccnc5ccccc35)CCO4)cc2[nH]1` [Example 195, N,N-dimethyl-6-(4-quinolin-4-yl-2,3,4,5-tetrahydro-1,4-benzoxazepin-7-yl)-1H-benzimidazol-2-amine]: the IC50 is 1000 to 2000 nM.

As for `Cc1nc2ccc(-c3ccc4c(c3)CN(c3ncnc(Nc5ccccc5)c3C)CCO4)cc2[nH]1` [Example 77, 5-methyl-6-[7-(2-methyl-1H-benzimidazol-6-yl)-2,3-dihydro-1,4-benzoxazepine-4(5H)-yl]-N-phenylpyrimidin-4-amine], the half-maximal inhibitory concentration (IC50) was in the range of 1000 to 2000 nM.

On to `Cc1nc(N)nc(N2CCOc3ccc(-c4ccc5[nH]cnc5c4)cc3C2)c1Cc1ccc(F)cc1` [Example 651, 4-[7-(1H-benzimidazol-5-yl)-2,3-dihydro-1,4-benzoxazepin-4(5H)-yl]-5-[(4-fluorophenyl)methyl]-6-methylpyrimidin-2-amine], for which the IC50 is not above 10 nM.
